Results published in patent US12668589B2, “N-formamidopyrazoline derivative as P2X3 receptor antagonist and use thereof” (HANGZHOU WESTAN PHARMACEUTICAL TECHNOLOGY CO., LTD, priority 2020, dated 2026).

Key:
human P2X3 [1] = target: T1, human P2X3 (Homo sapiens, UniProt P56373); experiment: cell-based
T1 sequence (P56373 1-397): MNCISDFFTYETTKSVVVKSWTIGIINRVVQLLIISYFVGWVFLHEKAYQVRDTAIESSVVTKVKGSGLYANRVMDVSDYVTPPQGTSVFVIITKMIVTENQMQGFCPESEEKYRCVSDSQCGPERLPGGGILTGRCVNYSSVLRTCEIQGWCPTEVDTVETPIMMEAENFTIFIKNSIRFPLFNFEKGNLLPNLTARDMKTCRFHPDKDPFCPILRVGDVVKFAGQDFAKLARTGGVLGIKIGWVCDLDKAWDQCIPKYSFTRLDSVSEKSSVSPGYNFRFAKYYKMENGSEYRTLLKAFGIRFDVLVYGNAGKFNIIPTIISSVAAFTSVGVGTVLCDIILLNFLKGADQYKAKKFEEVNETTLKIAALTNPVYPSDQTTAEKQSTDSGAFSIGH

human P2X4 = target: T2, human P2X4 (Homo sapiens, UniProt Q99571); experiment: Inhibitory activity against human P2X4 (electrophysiological method); type: cell-based; settings: read-out: hP2X4 (IC50)
T2 construct: expressed in transfected cells; host or cells: HEK293
T2 sequence (Q99571 1-388): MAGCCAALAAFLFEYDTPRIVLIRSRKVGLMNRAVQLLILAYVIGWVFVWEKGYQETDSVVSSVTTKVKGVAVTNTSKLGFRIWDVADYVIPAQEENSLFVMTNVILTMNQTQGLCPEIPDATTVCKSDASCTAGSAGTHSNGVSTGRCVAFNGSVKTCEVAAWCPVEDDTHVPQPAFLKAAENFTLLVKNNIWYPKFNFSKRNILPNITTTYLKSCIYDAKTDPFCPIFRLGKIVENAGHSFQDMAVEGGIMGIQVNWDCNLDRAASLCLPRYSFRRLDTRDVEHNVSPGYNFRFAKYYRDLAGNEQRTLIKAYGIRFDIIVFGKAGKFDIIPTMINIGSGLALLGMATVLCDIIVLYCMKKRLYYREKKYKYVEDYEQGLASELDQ

human PAR-1 = target: T3, human PAR-1 (Homo sapiens, UniProt P25116); experiment: Inhibitory activity against PAR-1, calcium ion flux fluorescence method (FLIPR); type: cell-based; settings: HEK293/Ga15 cells expressing human PAR-1, TFLLR-NH2 10 μM, starting concentration 30 μM
T3 construct: host or cells: HEK293/Ga15 recombinant cell line
T3 sequence (P25116 22-425): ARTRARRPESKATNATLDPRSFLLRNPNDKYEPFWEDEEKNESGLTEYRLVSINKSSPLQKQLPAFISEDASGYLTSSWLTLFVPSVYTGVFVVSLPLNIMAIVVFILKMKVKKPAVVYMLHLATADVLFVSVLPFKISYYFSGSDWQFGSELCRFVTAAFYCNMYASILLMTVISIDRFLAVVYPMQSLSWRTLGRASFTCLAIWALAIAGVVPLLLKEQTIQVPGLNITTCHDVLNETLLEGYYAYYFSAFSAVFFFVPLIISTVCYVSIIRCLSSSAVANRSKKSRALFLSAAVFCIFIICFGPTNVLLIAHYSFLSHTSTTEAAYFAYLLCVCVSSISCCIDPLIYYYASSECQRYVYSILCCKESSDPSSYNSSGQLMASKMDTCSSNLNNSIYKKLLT
Method: The inhibitory activity of the title compounds against human PAR-1 was determined by a calcium ion flux fluorescence method (an FLIPR method). The method thereof was reported in the literature of Zhong et al. [Zhong et al. J Biomol Struct Dyn, 2017, 35(13):2853].
An HEK293/Ga15 recombinant cell line (HD Biosciences, Shanghai, China) stably expressing human PAR-1 was cultured in a DMEM (Thermo Fisher Scientific, Shanghai) culture solution (containing 10% calf serum, 800 μg/mL G418). Incubator conditions were 37° C. and an air humidity with 5% CO2.
On the first day, 20 μL per well of PAR-1 cells at a concentration of 4E+5 cells/mL were seeded in a 384-well analysis plate (Corning 3712). […] On the second day, a culture solution in each well was poured off. Then, 20 μL of 1×loading dye (2 μM Fluo-8 AM in 1×HBSS with 20 mM HEPES, 1 mM Probenecid, 0.025% Pluronic F-127 assay buffer) was added in each well. The cell analysis plate was cultured for 1 hour at a room temperature.
The compounds were dissolved into 100% DMSO to prepare a 10 mM stock solution, which was stored at −20° C. On the day of use, the compound stock solution was thawed at a room temperature. Each compound was subjected to 1:3 serial dilution at 11 concentration points with a DMEM culture solution with a starting concentration of 30 μM. Each compound was subjected to double dilution for testing. A positive control compound was diluted in the same way with SCH79797 with a starting concentration of 30 μM.
The cell analysis plate was placed in a FLIPR instrument (Molecular Device) and 10 μL of compounds (3× of a final concentration) in a compound plate was added to corresponding wells of the cell analysis plate. After 10 minutes, 10 μL of TFLLR-NH2 (TFA) (a final concentration of 10 μM) was added to each well to stimulate generation of intracellular calcium flux signals. Ca^++-dependent fluorescence signals were continuously monitored at excitation wavelengths of 470/495 nm and emission wavelengths of 515/575 nm to analyze the inhibitory activity of the compounds.
Data were collected and analyzed by using an FLIPR program. The inhibitory (or agonistic) activity of the compounds at each concentration was assessed by fluorescence peaks. IC50 values of the compounds were calculated by using EXCEL and PRISM programs.

rP2X3 = target: T4, rP2X3 (Rattus norvegicus, UniProt P49654); experiment: Inhibitory activity against P2X3 in rats (electrophysiological method); type: cell-based
T4 construct: expressed in transfected cells; host or cells: HEK293
T4 sequence (P49654 1-397): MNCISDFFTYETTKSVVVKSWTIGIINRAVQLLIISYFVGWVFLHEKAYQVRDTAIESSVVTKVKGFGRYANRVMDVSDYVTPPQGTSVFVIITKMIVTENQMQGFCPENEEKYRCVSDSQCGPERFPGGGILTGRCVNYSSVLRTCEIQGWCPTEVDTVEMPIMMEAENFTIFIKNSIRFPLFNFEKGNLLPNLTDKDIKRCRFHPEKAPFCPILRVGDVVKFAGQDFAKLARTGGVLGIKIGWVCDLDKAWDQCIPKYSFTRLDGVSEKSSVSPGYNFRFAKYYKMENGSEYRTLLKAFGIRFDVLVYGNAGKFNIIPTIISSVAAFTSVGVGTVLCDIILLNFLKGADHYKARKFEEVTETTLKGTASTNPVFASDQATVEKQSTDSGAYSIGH

gpP2X3 = target: T5, gpP2X3 (Cavia porcellus, UniProt H0VWY5); experiment: Inhibitory activity against P2X3 in guinea pigs (electrophysiological method); type: cell-based; settings: guinea pig P2X3, electrophysiological method
T5 sequence (H0VWY5 1-391): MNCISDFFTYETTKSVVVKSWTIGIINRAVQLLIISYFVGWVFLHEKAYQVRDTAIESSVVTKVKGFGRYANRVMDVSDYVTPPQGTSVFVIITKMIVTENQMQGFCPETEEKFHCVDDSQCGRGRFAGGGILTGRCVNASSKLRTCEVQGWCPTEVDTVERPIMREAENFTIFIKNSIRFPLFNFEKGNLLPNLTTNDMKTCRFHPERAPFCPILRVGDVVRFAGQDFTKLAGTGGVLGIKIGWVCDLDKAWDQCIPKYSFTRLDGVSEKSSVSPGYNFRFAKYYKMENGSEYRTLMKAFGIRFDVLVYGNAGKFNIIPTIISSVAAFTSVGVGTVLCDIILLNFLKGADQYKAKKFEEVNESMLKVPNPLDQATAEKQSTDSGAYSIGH

human P2X2/3 = target: T6, human P2X2/3 (Homo sapiens, UniProt P56373+Q9UBL9); experiment: Inhibitory activity against human P2X2/3 (electrophysiological method); type: cell-based; settings: read-out: hP2X2/3 (IC50)
T6 construct: expressed in transfected cells; host or cells: HEK293
T6 sequence (P56373 1-397): T1 sequence (P56373 1-397)
T6 sequence (Q9UBL9 1-471): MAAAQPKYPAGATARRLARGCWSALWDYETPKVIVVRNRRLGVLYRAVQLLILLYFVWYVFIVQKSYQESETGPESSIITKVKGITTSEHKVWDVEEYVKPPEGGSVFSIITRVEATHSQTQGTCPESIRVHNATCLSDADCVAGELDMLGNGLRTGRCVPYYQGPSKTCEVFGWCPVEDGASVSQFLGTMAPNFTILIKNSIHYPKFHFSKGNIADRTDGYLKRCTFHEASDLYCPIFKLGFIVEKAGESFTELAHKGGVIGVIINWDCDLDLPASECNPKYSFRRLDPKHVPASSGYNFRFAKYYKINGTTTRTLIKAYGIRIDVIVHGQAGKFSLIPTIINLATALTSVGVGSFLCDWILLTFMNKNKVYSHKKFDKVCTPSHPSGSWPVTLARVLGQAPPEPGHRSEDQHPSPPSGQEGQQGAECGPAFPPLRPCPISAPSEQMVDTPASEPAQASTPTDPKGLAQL

human P2X3 [2] = target: T1, human P2X3; experiment: Inhibitory activity against human P2X3, perforated patch clamp (electrophysiological method); settings: read-out: hP2X3 (IC50), transfected HEK293 cells, agonist ATP 1 μM, compounds pre-administered for 2 minutes

With `Cc1ccc(C2=NN(C(=O)N[C@H](C)c3ccc(C(F)(F)F)nc3)C[C@@H]2N2CCOC2=O)nc1` [Compound 23, (S)-4-(2-oxooxazolidin-3-yl)-3-(5-methylpyridin-2-yl)-N-((R)-1-(6-(trifluoromethyl)pyridin-3-yl)ethyl)-4,5-dihydro-1H-pyrazol-1-carboxamide] the IC50 (human P2X3 [1]) was 38 nM, the IC50 (human P2X4) was greater than 20 µM and the IC50 (human PAR-1) was greater than 30 µM. For the same compound, the IC50 (rP2X3) was 103 nM, the IC50 (gpP2X3) was 359 nM and the IC50 (human P2X2/3) was 1150 nM.

“(S)-4-(3-oxomorpholin-4-yl)-3-(4-methylphenyl])-N- ((R)-1-(3-methyl-1,2,4-oxadiazol-5-yl)ethyl)-4,5-d ihydro-1H-pyrazol-1-carboxamide [Compound 46]” gave an IC50 (human P2X3 [2]) of 151 nM.
